Data reported in PMC11352961, “Peptide dendrimers transfecting CRISPR/Cas9 plasmid DNA: optimization and mechanism” (RSC Chemical Biology, 2024).
Bridge positions count the residues as written; N and C are the ends. Square brackets hold non-standard residues; d marks the D form. Side chains are listed from the residue outwards. Peptide text beside a SMILES is read from it. I, II: the chains in the order shown. * marks the point of attachment. Palmitoyl = CCCCCCCCCCCCCCCC(=O)*

How the values were obtained:
HEK293 cells = assay: Cell viability by PrestoBlue assay after transfection, HEK cells; format: cell-based; conditions: 4 h
[1] = cited from earlier work

CCCCCCCCCCCCCCCC(=O)NCCCC[C@@H](NC(=O)[C@@H](CCCCNC(=O)CCCCCCCCCCCCCCC)NC(=O)[C@@H](CCCCNC(=O)[C@@H](CC(C)C)NC(=O)[C@@H](CC(C)C)NC(=O)[C@@H](CCCCNC(=O)[C@@H](CC(C)C)NC(=O)[C@@H](CCCCN)NC(=O)[C@@H](CCCCNC(=O)[C@@H](CC(C)C)NC(=O)[C@H](N)CCCCN)NC(=O)[C@@H](CC(C)C)NC(=O)[C@H](N)CCCCN)NC(=O)[C@@H](CC(C)C)NC(=O)[C@@H](CCCCN)NC(=O)[C@@H](CCCCNC(=O)[C@@H](CC(C)C)NC(=O)[C@H](N)CCCCN)NC(=O)[C@@H](CC(C)C)NC(=O)[C@H](N)CCCCN)NC(=O)[C@@H](CC(C)C)NC(=O)[C@@H](CC(C)C)NC(=O)[C@@H](CCCCNC(=O)[C@@H](CC(C)C)NC(=O)[C@@H](CCCCN)NC(=O)[C@@H](CCCCNC(=O)[C@@H](CC(C)C)NC(=O)[C@H](N)CCCCN)NC(=O)[C@@H](CC(C)C)NC(=O)[C@H](N)CCCCN)NC(=O)[C@@H](CC(C)C)NC(=O)[C@@H](CCCCN)NC(=O)[C@@H](CCCCNC(=O)[C@@H](CC(C)C)NC(=O)[C@H](N)CCCCN)NC(=O)[C@@H](CC(C)C)NC(=O)[C@H](N)CCCCN)C(N)=O [DMH13, reference compound] (I: H-[dK][dL][dK]([dL-dK])[dK][dL][dK][dL][dL][dK][dK](Palmitoyl)[dK](Palmitoyl)-NH2 / II: H-[dK][dL][dK]([dL-dK])[dK][dL][dK][dL][dL] / III: H-[dK][dL][dK]([dL-dK])[dK][dL] / IV: H-[dK][dL][dK]([dL-dK])[dK][dL]; amide I:6-IV:C, I:9-II:C, II:6-III:C)
% viability HEK cells (HEK293 cells): 96 ± 6% | pKa of dendrimer N-termini [1]: ~6.5
